US4145253A, “Process for producing fortimicin factors” (Abbott Laboratories, priority 1976, dated 1979)
≈ marks a conversion by molar mass, not a printed value. Entries after “also recorded” stand apart in the source; their conditions may differ. Structures can show the parent of a compound that is named as a salt. Where two headings read alike, the source gives them in different places.

Legend:
LD50 for dd-mouse = conditions: in vivo; dd-mouse weighing 20 ± 1 g
Source text: Further, Fortimicin D is expected to have a therapeutic effect on various infections (in human beings and in animals) induced by the above-mentioned various bacteria. […] With such antibacterial properties, Fortimicin D is applicable to medicinal purposes.

[1] = test system: Bacillus subtilis No. 10707; assay: antibacterial activity of preparations (paper disc method); format: cell-based
Experimental: After the completion of fermentation, the culture liquor is adjusted to pH 2.5 with concentrated sulfuric acid and is stirred for 30 minutes. Thereafter, about 7 kg of a filter aid, Radiolite No. 600 (product of Showa Kagaku Kogyo Co., Ltd.) is added to the culture liquor and the microbial cells are removed by filtration. The filtrate is adjusted to pH 7.5 by the addition of 6N sodium hydroxide, and then passed through a column packed with about 20 l of a cation exchange resin, Amberlite IRC-50 (ammonium form). The active principles are adsorbed on the resin, and the effluent is discarded. After the resin is washed with water, elution of the active principles is carried out with 0.5N aqueous ammonia. The eluate is subjected to determination of activity by a paper disc method using an agar plate of Bacillus subtilis No. 10707. Fractions showing an activity are combined and concentrated under reduced pressure to about 1 L. The concentrate is then passed through a column packed with 500 ml of an anion exchange resin, Dowex 1 × 2 (OH form) and then about 2 L of water is passed through the column. In this manner, impurities are removed and the active principles are eluted with water. The active fractions are combined and concentrated under reduced pressure to about 100 ml. The concentrate is passed through a column packed with about 50 ml of active carbon powder whereby the active principles are adsorbed. The column is washed with water and the effluent and washings are discarded. Elution is carried out with 0.2N sulfuric acid. The eluate is subjected to determination of activity by a paper disc method using Bacillus subtilis No. 10707. The active fractions are combined and passed through a column of a resin, Dowex 44 (OH form) and elution of the active principles is carried out with water. The active fractions are combined and concentrated to about 50 ml. The concentrate is freeze-dried to obtain a crude powder of Fortimicin complex. The yield of the crude powder is about 35 g and the activity is 580 unit/mg (activity of 1 mg of the pure preparate corresponds to 1,000 units).
About 500 ml of silica gel is suspended in a solvent comprising isopropanol, chloroform, and concentrated aqueous ammonia (4:2:1 by volume) and packed in a glass column as a tight, uniform layer. Thereafter, the column is thoroughly washed with the same solvent. Then 10 g of the crude powder obtained in the above step B is charged over the silica gel to form a uniform, thin layer. After the crude powder is charged, the same solvent is poured gradually into the column from the top and thereafter elution is carried out continuously at a flow rate of about 50 ml/hour. The eluate is recovered in 20 ml fractions and each of the fractions is subjected to determination of activity by the paper disc method using Bacillus subtilis No. 10707. First, Fortimicin B is eluted followed by Fortimicin A. Then, the elution is continued and after Fortimicin C is eluted, Fortimicin D is eluted. The active fractions are subjected to thin layer chromatography and the fractions containing Fortimicin D are combined and concentrated under reduced pressure to sufficiently remove the solvent.
About 500 ml of silica gel, suspended in a solvent comprising isopropanol, chloroform, and concentrated aqueous ammonia (4:2:1 by volume) is packed in a glass column as a tight, uniform layer. Thereafter, the column is thoroughly washed with the same solvent. Then the crude powder obtained above is charged over the silica gel in a uniform thin layer and the same solvent is poured gradually into the column from the top and thereafter elution is carried out continuously at a flow rate of about 50 ml/hour. The eluate is recovered in 20 ml fractions and each of the fractions is subjected to determination of activity by the paper disc method using Bacillus subtilis No. 10707. First, Fortimicin B is eluted followed by Fortimicin KE. […]

[2] = test system: Bacillus subtilis No. 10707; assay: antibacterial spectrum, MIC by agar dilution method; format: cell-based; conditions: pH 8.0, read-out: Minimum Inhibitory Concentration
Source text: (§1) Table 4 illustrates the antibacterial spectra of Fortimicin D and Fortimicin KE against various microorganisms.
(§2) (Minimum Inhibitory Concentration, γ/ml
(§3) measured by agar dilution method at pH 8.0)

Escherichia coli ATCC 26 = assay: as above; format: cell-based
Source text: as §1, §2, §3

Escherichia coli KY 8315 = assay: as above; format: cell-based
Source text: as §1, §2, §3

Escherichia coli KY 8327 = assay: as above; format: cell-based; conditions: for MIC: Escherichia coli
Source text: as §1, §2, §3

[3] = test system: Klebsiella pneumoniae ATCC 10031; assay: as above; format: cell-based
Source text: as §1, §2, §3

[4] = test system: Pseudomonas aeruginosa BMH No. 1; assay: as above; format: cell-based; conditions: BMHNO.1, pH 8.0, read-out: Minimum Inhibitory Concentration
Source text: as §1, §2, §3

[5] = test system: Pseudomonas aeruginosa KY 8510; assay: as above; format: cell-based; conditions: KY8510, pH 8.0, strain resistant to kanamycin, kanamycin B, tobramycin, gentamicin C1a and ribostamycin, read-out: Minimum Inhibitory Concentration
Source text: as §1, §2, §3

[6] = test system: Salmonella typhosa ATCC 9992; assay: as above; format: cell-based; conditions: Salmonella enterica, pH 8, read-out: Minimum Inhibitory Concentration
Source text: as §1, §2, §3

[7] = test system: Shigella sonnei ATCC 9290; assay: as above; format: cell-based; conditions: ATCC9290, pH 8.0, read-out: Minimum Inhibitory Concentration
Source text: as §1, §2, §3

[8] = test system: Staphylococcus aureus ATCC 6538P; assay: as above; format: cell-based; conditions: ATCC6538P, pH 8.0, read-out: Minimum Inhibitory Concentration
Source text: as §1, §2, §3

[9] = test system: Gram-positive and Gram-negative bacteria; assay: antibacterial spectrum, statement in words; format: cell-based
Source text: as §1, §2, §3

[10] = solubility of the free base; format: physicochemical; conditions: for solubility in organic solvents: chloroform, benzene, ethyl acetate, butyl acetate, ethyl ether, butanol, petroleum ether, n-hexane, etc., ordinary organic solvents; for solubility in ethanol and acetone / solubility in methanol / solubility in water: free base
[11] = stability in alkaline solution; format: physicochemical
[12] = Examples 2 and 3, before cellulose column chromatography
[13] = Examples 2 and 3, free base after cellulose column chromatography
[14] = Examples 4 and 5, purified preparate, Casamino acid medium
[15] = Table 5, purified preparate from Micromonospora olivoasterospora MK-70
[16] = Table 5, purified preparate from Micromonospora olivoasterospora MK-80
[17] = Table 5, purified preparate from Micromonospora olivoasterospora Mm 744
[18] = preparate of Example 1, strain CS-26, silica gel chromatography

SMILES	activity ([1]; Examples 8 and 9, sulfate)	MIC [2] [µg/mL]	MIC [4] [µg/mL]	MIC [6] [µg/mL]	MIC [7] [µg/mL]	MIC [8] [µg/mL]	antibacterial activity / spectrum [9]	activity [1, 12]	activity [1, 13] [unit/mg]	activity [1, 14]	activity [1, 15] [unit/mg]	activity [1, 16] [unit/mg]	activity [1, 17] [unit/mg]	activity [1, 18]	solubility in organic solvents [10]	solubility in ethanol and acetone [10]	solubility in methanol [10]	solubility in water [10]	other results
COC1C(O)C(N)C(OC2OC(CN)CCC2N)C(O)C1N(C)C(=O)CN (stereo not shown) [Fortimicin D sulfate]	about 650 unit/mg	–	–	–	–	–	–	–	–	–	–	–	–	–	–	–	–	–	LD50 (LD50 for dd-mouse): 159 mg/kg
COC1C(O)C(N)C(OC2OC(CN)CCC2N)C(O)C1N(C)C(=O)CN (stereo not shown) [Fortimicin D]	–	0.02 (≈ 0.0511 µM)	5 (≈ 12.8 µM)	0.08 (≈ 0.204 µM)	0.3 (≈ 0.766 µM)	0.02 (≈ 0.0511 µM)	strong antibacterial activity against a broad range of Gram-positive and Gram-negative bacteria	about 840 unit/mg	970	about 975 unit/mg	985	975	990	about 980 unit/mg	poorly soluble; also recorded: insoluble	slightly soluble	soluble	readily soluble	MIC (Escherichia coli ATCC 26; ATCC26, agar dilution method, pH 8.0, read-out: Minimum Inhibitory Concentration): 0.32 µg/mL (≈ 0.817 µM); MIC (Escherichia coli KY 8315; KY8315, agar dilution method, pH 8.0, read-out: Minimum Inhibitory Concentration): 0.13 µg/mL (≈ 0.332 µM); MIC (Escherichia coli KY 8327; KY8327, agar dilution method, pH 8.0, strain resistant to kanamycin, gentamicin and tobramycin, read-out: Minimum Inhibitory Concentration): 0.13 µg/mL (≈ 0.332 µM); activity against resistant Escherichia coli (Escherichia coli KY 8327; certain strains of Escherichia coli resistant to kanamycin, gentamicin and tobramycin): effective against certain strains of Escherichia coli which are resistant to kanamycin, gentamicin and tobramycin; MIC ([3]; ATCC10031, agar dilution method, pH 8.0, read-out: Minimum Inhibitory Concentration): 0.08 µg/mL (≈ 0.204 µM); MIC [5]: 5 µg/mL (≈ 12.8 µM)
CNC1C(O)C(OC2OC(CN)CCC2N)C(N)C(O)C1OC (stereo not shown) [Fortimicin KE]	–	104 (≈ 312 µM)	208 (≈ 623 µM)	13.1 (≈ 39.2 µM)	26.1 (≈ 78 µM)	1.65 (≈ 4.93 µM)	broad antibacterial spectrum	about 860 unit/mg	980	about 985 unit/mg	985	980	990	about 970 unit/mg	poorly soluble; also recorded: insoluble	slightly soluble	soluble	readily soluble	MIC (Escherichia coli ATCC 26; ATCC26, pH 8, read-out: Minimum Inhibitory Concentration): 26.1 µg/mL (≈ 78 µM); MIC (Escherichia coli KY 8315; KY8315, pH 8, read-out: Minimum Inhibitory Concentration): 26.1 µg/mL (≈ 78 µM); MIC (Escherichia coli KY 8327; KY8327, pH 8, read-out: Minimum Inhibitory Concentration): 26.1 µg/mL (≈ 78 µM); MIC ([3]; ATCC10031, pH 8, read-out: Minimum Inhibitory Concentration): 26.1 µg/mL (≈ 78 µM); activity ([1]; Example 7, free base obtained from Fortimicin D with barium hydroxide): about 970 unit/mg; stability in an alkaline solution [11]: stable in an alkaline solution
CNC1C(O)C(OC2OC(CN)CCC2N)C(N)C(O)C1OC (stereo not shown) [sulfate of Fortimicin KE]	about 610 unit/mg	–	–	–	–	–	–	–	–	–	–	–	–	–	–	–	–	–	–
